Values of other authors in patent US12048727B2, “Synergistic formulation against acne and a process for the preparation thereof” (COUNCIL OF SCIENTIFIC & INDUSTRIAL RESEARCH, priority 2019, dated 2024).

System: P. acnes strains
Settings: Indian population

| Compound | resistance of antibiotics |
| --- | --- |
| CC[C@H]1OC(=O)[C@H](C)[C@@H](O[C@H]2C[C@@](C)(OC)[C@@H](O)[C@H](C)O2)[C@H](C)[C@@H](O[C@@H]2O[C@H](C)C[C@H](N(C)C)[C@H]2O)[C@](C)(O)C[C@@H](C)CN(C)[C@H](C)[C@@H](O)[C@]1(C)O [azithromycin] | 100% |
| CC[C@H]1OC(=O)[C@H](C)[C@@H](O[C@H]2C[C@@](C)(OC)[C@@H](O)[C@H](C)O2)[C@H](C)[C@@H](O[C@@H]2O[C@H](C)C[C@H](N(C)C)[C@H]2O)[C@](C)(O)C[C@@H](C)C(=O)[C@H](C)[C@@H](O)[C@]1(C)O [erythromycin] | 98% |
